Test results taken from ChEMBL document CHEMBL5634128, “Development of chalcone-like derivatives and their biological and mechanistic investigations as novel influenza nuclear export inhibitors” (Eur J Med Chem, 2023).
The source made the active and inactive calls. The rule behind the calls is not given here.

Assays:
[1] = system: Influenza A virus; experiment: Anti-influenza activity against Influenza A virus A/Goose/Guangdong/SH7/2013 (H5N1) infected in chicken embryo fibroblast assessed as inhibition of virus-induced cytopathic effect; format: functional
[2] = Cytotoxicity against chicken embryo fibroblast cells assessed as reduction in cell growth at 50 uM by CCK-8 assay relative to control; format: toxicity, cell-based, Gallus gallus; settings: chicken embryo fibroblast cells, read-out: Activity
[3] = target: Exportin-1 (Homo sapiens) (UniProt O14980); experiment: Inhibition of CRM1-mediated nuclear export in human A549 cells assessed as distribution of GFP-tagged AID in nucleus at 20 uM administered for 12 hrs and measured after 24 hrs by fluorescence microscopy analysis; format: cell-based; settings: time 36.0 hrs
[4] = target: Nucleoprotein (Influenza A virus (strain A/Wilson-Smith/1933 H1N1), UniProt P15682); experiment: Binding affinity to influenza A virus Nucleoprotein assessed as dissociation constant by SPR analysis
[5] = Binding affinity to influenza A virus M1 assessed as dissociation constant by SPR analysis
[6] = Binding affinity to influenza A virus NS2 assessed as dissociation constant by SPR analysis
[7] = system: Influenza A virus; experiment: Anti-influenza activity against Influenza A virus H5N1 infected in chicken embryo fibroblast assessed as reduction in viral growth; format: functional, organism-based
[8] = system: Influenza A virus; experiment: Anti-influenza activity against Influenza A virus H5N8 infected in chicken embryo fibroblast assessed as reduction in viral growth; format: functional, organism-based
[9] = Cytotoxicity against chicken embryo fibroblast cells assessed as reduction in cell growth by CCK-8; format: toxicity, cell-based, Gallus gallus
[10] = system: Influenza A virus; experiment: Anti-influenza activity against Influenza A virus A/PR/8/34 infected in chicken embryo fibroblast assessed as reduction in viral growth; format: functional, organism-based; settings: A/PR/8/34, Fibroblast
[11] = system: Influenza A virus; experiment: Anti-influenza activity against Influenza A virus A/Brisbane/10/2007 infected in chicken embryo fibroblast assessed as reduction in viral growth; format: functional, organism-based; settings: A/Brisbane/10/2007, Fibroblast
[12] = system: Influenza A virus; experiment: Anti-influenza activity against Influenza A virus pdm09 infected in chicken embryo fibroblast assessed as reduction in viral growth; format: functional, organism-based
[13] = system: Influenza A virus; experiment: Anti-influenza activity against Influenza A virus B/Yamagata infected in chicken embryo fibroblast assessed as reduction in viral growth; format: functional, organism-based
[14] = system: Influenza A virus; experiment: Anti-influenza activity against Influenza A virus B/Victoria infected in chicken embryo fibroblast assessed as reduction in viral growth; format: functional, organism-based

Chain of Nucleoprotein (P15682 whole entry): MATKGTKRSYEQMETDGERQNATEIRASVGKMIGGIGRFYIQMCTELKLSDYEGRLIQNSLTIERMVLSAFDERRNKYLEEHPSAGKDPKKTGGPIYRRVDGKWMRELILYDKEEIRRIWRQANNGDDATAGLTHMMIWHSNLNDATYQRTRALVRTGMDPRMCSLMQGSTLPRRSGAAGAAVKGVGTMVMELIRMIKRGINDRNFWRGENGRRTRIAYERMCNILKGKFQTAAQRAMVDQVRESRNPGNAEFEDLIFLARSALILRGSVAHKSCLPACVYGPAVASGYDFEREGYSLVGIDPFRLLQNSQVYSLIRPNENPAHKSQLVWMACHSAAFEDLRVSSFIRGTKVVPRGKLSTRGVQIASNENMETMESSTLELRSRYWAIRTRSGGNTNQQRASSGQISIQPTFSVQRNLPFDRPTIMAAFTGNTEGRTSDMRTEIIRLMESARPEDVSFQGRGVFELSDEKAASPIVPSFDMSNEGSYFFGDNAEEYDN
Chain of Exportin-1 (Homo sapiens) (O14980 whole entry): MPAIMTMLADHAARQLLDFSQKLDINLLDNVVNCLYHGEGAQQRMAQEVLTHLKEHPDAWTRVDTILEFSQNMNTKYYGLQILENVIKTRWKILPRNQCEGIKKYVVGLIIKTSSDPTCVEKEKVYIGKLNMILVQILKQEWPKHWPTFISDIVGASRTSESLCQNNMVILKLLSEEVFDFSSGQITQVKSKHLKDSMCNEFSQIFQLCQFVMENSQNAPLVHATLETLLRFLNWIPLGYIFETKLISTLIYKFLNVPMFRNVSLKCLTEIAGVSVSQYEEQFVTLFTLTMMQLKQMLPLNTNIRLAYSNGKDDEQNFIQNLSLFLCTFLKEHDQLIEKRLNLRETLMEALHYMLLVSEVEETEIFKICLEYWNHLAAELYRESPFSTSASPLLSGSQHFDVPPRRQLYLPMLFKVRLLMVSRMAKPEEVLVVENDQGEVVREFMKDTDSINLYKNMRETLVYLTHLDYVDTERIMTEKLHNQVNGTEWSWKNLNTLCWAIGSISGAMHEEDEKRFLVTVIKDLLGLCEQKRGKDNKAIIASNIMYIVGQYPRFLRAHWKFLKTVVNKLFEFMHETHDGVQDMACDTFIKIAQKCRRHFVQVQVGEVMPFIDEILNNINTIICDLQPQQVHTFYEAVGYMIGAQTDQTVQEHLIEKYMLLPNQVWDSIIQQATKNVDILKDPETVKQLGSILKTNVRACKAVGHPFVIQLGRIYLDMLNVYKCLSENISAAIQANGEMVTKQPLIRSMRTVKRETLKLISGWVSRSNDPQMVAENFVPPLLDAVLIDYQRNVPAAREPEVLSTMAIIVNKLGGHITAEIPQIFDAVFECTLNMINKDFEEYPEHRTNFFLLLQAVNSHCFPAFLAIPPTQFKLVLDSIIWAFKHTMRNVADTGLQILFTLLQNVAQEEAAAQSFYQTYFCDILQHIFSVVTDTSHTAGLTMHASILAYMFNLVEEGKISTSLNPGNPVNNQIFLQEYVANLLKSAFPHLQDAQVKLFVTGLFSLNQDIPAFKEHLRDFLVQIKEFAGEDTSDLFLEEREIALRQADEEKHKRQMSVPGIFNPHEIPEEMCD

| SMILES | inhibition (INH) [1] [%] | percent cell viability relative to control at 50 µM [2] [%] | also measured |
| --- | --- | --- | --- |
| COc1cccc(OC)c1C(=O)C1OC1c1ccc(C)cc1 (centres undefined) | 35.03 | 62.5 |  |
| CCCOc1ccc(/C=C/C(=O)/C=C/c2c(OC)cccc2OC)cc1 | 41.16 | 149 |  |
| COc1cccc(OC)c1/C=C1\CCC/C(=C\c2ccc([N+](=O)[O-])cc2)C1=O | 48.07 | 66.9 |  |
| COc1cccc(OC)c1/C=C1\CCC/C(=C\c2ccc(C(C)(C)C)cc2)C1=O | 57.57 | 61.1 |  |
| COc1cccc(OC)c1C(=O)N/N=C/c1ccc(C(C)(C)C)cc1 | 38.93 | 57.7 |  |
| COc1cccc(OC)c1/C=C1\CCC/C(=C\c2ccccn2)C1=O | 25.98 | 85 |  |
| COc1cccc(OC)c1/C=C/C(=O)/C=C/c1ccc([N+](=O)[O-])cc1 | 70.62 | 99.5 |  |
| COc1cccc(OC)c1/C=C/C(=O)/C=C/c1ccc(-c2ccccc2)cc1 | 51.69 | 104 |  |
| COc1cccc(OC)c1/C=C/C(=O)/C=C/c1ccc(-n2ccnc2C)cc1 | 28.99 | 61 |  |
| COc1cccc(OC)c1C(=O)CCc1ccc(C)cc1 | 29.55 | 65 |  |
| COc1cccc(OC)c1/C=C/C(=O)/C=C/c1ccc(-n2cccn2)cc1 | 37.85 | 104 |  |
| COc1cccc(OC)c1C(=O)N/N=C/c1ccccn1 | 13.78 | 81.9 |  |
| CCC(=C/[C@H](C)C/C=C/C(C)=C/[C@@H](C)C(=O)[C@@H](C)[C@H](O)[C@@H](C)C/C(C)=C/C(=O)O)/C=C/[C@@H]1OC(=O)C=C[C@@H]1C |  |  | inhibition [3]: Active |
| COc1cccc(OC)c1C(=O)C1OC1c1ccc(C(C)(C)C)cc1 (centres undefined) | 28.99 | 85.8 |  |
| COc1cccc(OC)c1C(=O)CCc1ccc(C(C)(C)C)cc1 | 13.17 | 96.4 |  |
| COc1cccc(OC)c1/C=C/C(=O)/C=C/c1ccc(-c2ccccc2)c(C)c1 | 58.93 | 113 |  |
| COc1cccc(OC)c1/C=C/C(=O)/C=C/c1nc(C)c(C)nc1C | 71.53 | 83.8 |  |
| COc1cccc(OC)c1/C=C1\CCC/C(=C\c2nc(C)c(C)nc2C)C1=O | 57.06 | 72.4 |  |
| COc1cccc(OC)c1C(=O)N/N=C/c1ccc(C)cc1 | 47.74 | 61.2 |  |
| Cc1onc(-c2ccccc2)c1C(=O)N1CCN(c2ccc([N+](=O)[O-])cc2Cl)CC1 [NUCLEOZIN] |  |  | Kd [4]: 0.014 µM; Kd [5]: Not Active; Kd [6]: Not Active |
| COc1cccc(OC)c1C(=O)CCc1ccccn1 | 27.71 | 74.6 |  |
| COc1cccc(OC)c1/C=C/C(=O)/C=C/c1ccccn1 | 70.92 | 110 |  |
| COc1cccc(OC)c1/C=C/C(=O)/C=C/c1cccc(N2CCOCC2)c1 | 71.53 | 69.5 |  |
| COc1cccc(OC)c1/C=C/C(=O)/C=C/c1ccc(-c2ccccc2)cc1C | 23.04 | 110 |  |

| SMILES | inhibition (INH) [1] [%] | percent cell viability relative to control at 50 µM [2] [%] | also measured |
| --- | --- | --- | --- |
| COc1cccc(OC)c1C(=O)CCc1nc(C)c(C)nc1C | 18.14 | 71 |  |
| COc1cccc(OC)c1/C=C/C(=O)/C=C/c1ccc(N2CCCCC2)cc1 | 60.7 | 110 |  |
| COc1cccc(OC)c1/C=C/C(=O)/C=C/c1ccc(-n2ccnc2)cc1 | 18.14 | 106 |  |
| COc1cccc(OC)c1C(=O)C1OC1c1nc(C)c(C)nc1C (centres undefined) | 5.53 | 64.6 |  |
| COc1cccc(OC)c1/C=C/C(=O)/C=C/c1ccc(C(C)(C)C)cc1 | 72.89 | 86 |  |
| COc1cccc(OC)c1/C=C/C(=O)/C=C/c1ccc(N(C)C)cc1 | 75.34 | 110 | EC50 [7]: 20.9 µM; EC50 [8]: 16 µM; CC50 [9]: > 100 µM |
| COc1cccc(OC)c1/C=C/C(=O)/C=C/c1ccc(-c2cccnc2)cc1 | 25.98 | 111 |  |
| COc1ccc(/C=C/C(=O)/C=C/c2c(OC)cccc2OC)cc1-c1ccccc1 | 35.03 | 85 |  |
| COc1cccc(OC)c1/C=C/C(=O)/C=C/c1ccc(N2CCN(C)CC2)cc1 | 57.74 | 94.7 |  |
| COc1cccc(OC)c1/C=C/C(=O)/C=C/c1ccccc1N1CCOCC1 | 73.17 | 63.3 |  |
| CCN(CC)c1ccc(/C=C/C(=O)/C=C/c2c(OC)cccc2OC)cc1 | 71.5 | 117 | EC50 [7]: 18.1 µM; EC50 [8]: 13.6 µM; CC50 [9]: > 100 µM |
| COc1cccc(OC)c1C(=O)C1OC1c1ccc([N+](=O)[O-])cc1 (centres undefined) | 13.17 | 61 |  |
| COc1cccc(OC)c1C(=O)CCc1ccc([N+](=O)[O-])cc1 | 2.26 | 61 |  |
| COc1ccc(/C=C/C(=O)/C=C/c2c(OC)cccc2OC)cc1 | 26.89 | 108 |  |
| COc1cccc(OC)c1C(=O)C1OC1c1ccccn1 (centres undefined) | 27.71 | 71.8 |  |
| COc1cccc(OC)c1/C=C1\CCC/C(=C\c2ccc(C)cc2)C1=O | 46.7 | 67.2 |  |
| COc1cccc(OC)c1/C=C/C(=O)/C=C/c1ccc(N2CCCC2)cc1 | 62.89 | 133 |  |
| COc1cccc(OC)c1/C=C/C(=O)/C=C/c1ccc(C)cc1 | 70.3 | 97.3 |  |
| COc1cc(/C=C/C(=O)/C=C/c2c(OC)cccc2OC)ccc1-c1ccccc1 | 54.77 | 126 |  |
| COc1cccc(OC)c1C(=O)N/N=C/c1nc(C)c(C)nc1C | 62.26 | 85 |  |
| COc1cccc(OC)c1/C=C/C(=O)/C=C/c1ccc(-c2nccs2)cc1 | 60.3 | 106 |  |
| COc1cccc(OC)c1C(=O)N/N=C/c1ccc([N+](=O)[O-])cc1 | 50.3 | 71.7 |  |
| COc1cccc(OC)c1C(=O)/C=C/c1nc(C)c(C)nc1C |  | 39.1 | EC50 [10]: 3.51 µM; EC50 [7]: 7.34 µM; EC50 [8]: 10.8 µM; CC50 [9]: < 50 µM; EC50 [11]: 3.69 µM; EC50 [12]: 1.34 µM; EC50 [13]: 2.47 µM; EC50 [14]: 3.87 µM |
| COc1cccc(OC)c1/C=C/C(=O)/C=C/c1c(C)cc(-c2ccccc2)cc1C | 27.71 | 108 |  |
